Experimental data from US10596151B2, “Methods and pharmaceutical compositions for reducing arterial stiffness with a combination of a therapeutic agent blocking the angiotensin receptor and a therapeutic agent inhibiting the NEP enzyme” (Novartis AG, priority 2015, dated 2020).
Where “and” joins values, the source holds several entries; their conditions need not be identical. Equal entries are not always repeated. Marks after values point to notes of the source that are not given here.

Legend:
Format in all cases: in vivo, human
[1] = system: elderly patients (≥60 years) with essential hypertension; test: […] study: 24-hour ambulatory brachial and central blood pressure (Mobil-O-Graph)
Source text: (§1) The study enrolled patient from 5 Dec. 2012 to 8 Apr. 2015.
The 24-hour maCAP and maPWA will be monitored using the oscillometric device, Mobil-0-Graph (IEM, Stolberg, Germany) with integrated ARC solver algorithms (Austrian Institute of Technology, Vienna, Austria). The traditional Mobil-O-Graph ambulatory blood pressure monitoring (ABPM) device has been available for more than a decade and through several product generations.24-27 The actual blood pressure measuring unit was validated according to the British Hypertension Society (BHS) and the European Society of Hypertension (ESH) recommendations.24,26 The method equipped with a GTF to derive aortic pressure waveforms28 is based on brachial readings acquired in the course of the conventional pressure measurement at diastolic level.
During the signal acquisition procedure, the received raw signals are separated into single waves and checked for their plausibility by means of extreme values and corresponding wavelengths using a cross-correlation approach. Poor waveforms are removed from further processing. After applying the GTF to each single waveform, the procedure is repeated.
With respect to legal issues, the Mobil-O-Graph maPWA monitor with integrated ARC solver algorithms holds approvals from CE, FDA, and JPAL (amongst others).

[2] = system: elderly patients (≥60 years) with essential hypertension; test: […] study: central aortic pressures (CASP, CPP/CAPP, central DBP, central MAP) by SphygmoCor X-CEL
Experimental: The term CAPP refers to central aortic PP. In the context of the present invention CAPP is measured with the SphygmoCor X-CEL System (AtCor Medical, Sydney, Australia) to non-invasively derive the ascending aortic pressure waveform from the brachial waveform using a validated generalised transfer function (GTF). A properly sized BP cuff is linked to a computer and software and the CASP, CAPP, augmentation pressure, and Alx are determined from the analysis of waveform by the system software. […]
The primary and secondary endpoints are changes from baseline in central aortic systolic pressure (CASP) and central aortic PP (CAPP) at week 12, respectively. Other secondary endpoints are the changes in CASP and CAPP at week 52. […] The primary variable will be analysed using a two-way analysis of covariance.
The SphygmoCor X-CEL System (AtCor Medical, Sydney, Australia) is being used to non-invasively derive the ascending aortic pressure waveform from the brachial waveform using a validated generalised transfer function (GTF).22 A properly sized BP cuff is linked to a computer and software and the CASP, CAPP, augmentation pressure, and Alx are determined from the analysis of waveform by the system software.
A sample size of 183 completers per group is targeted, which is calculated based on the primary efficacy variable, change from baseline in mean CASP at 12 weeks, assuming a standard deviation of 19 mm Hg. […] Assuming a 15% dropout rate, the total targeted sample size to be randomised is 432 patients (216 per group). The primary variable at the Week 12 endpoint will be analysed using a two-way analysis of covariance (ANCOVA), with treatment and region as factors and the baseline as a covariate. Mean CAPP at the Week 12 endpoint will be analysed using the same type of ANCOVA model used for the primary efficacy analysis. A two-sided significance at 0.05 level will be used for this analysis and a 95% confidence interval for the treatment difference will be provided.

[3] = system: elderly patients (≥60 years) with essential hypertension; test: […] study: carotid-femoral aortic pulse wave velocity (SphygmoCor X-CEL)
Experimental: In the context of the present invention PWV is measured as aortic PWV=aPWV. One system to measure aPWV is the SphygmoCor X-CEL system which measures the carotid-femoral aPWV, as the speed of the arterial pressure waveform as it travels through the descending aorta to the femoral artery, which is detected from simultaneously measured carotid and femoral arterial pulses. The carotid pulse is detected by applanation tonometry using a high-fidelity pressure transducer (Millar Instruments, Houston, Tex.), while the femoral pulse is detected using a partially inflated blood pressure cuff wrapped around the upper thigh. The distance travelled by the pulse wave is captured by making physical measurements on the body surface according to the manufacturer's recommendations. […] [Butlin M, Qasem A, Avolio A P. Estimation of central aortic pressure waveform features derived from the brachial cuff volume displacement waveform. Conf Proc IEEE Eng Med Biol Soc 2012; 2012:2591-4]
as §1
The SphygmoCor X-CEL system also measures the carotid-femoral aPWV, as the speed of the arterial pressure waveform as it travels through the descending aorta to the femoral artery, which is detected from simultaneously measured carotid and femoral arterial pulses. The carotid pulse is detected by applanation tonometry using a high-fidelity pressure transducer (Millar Instruments, Houston, Tex.), while the femoral pulse is detected using a partially inflated blood pressure cuff wrapped around the upper thigh. The distance traveled by the pulse wave is captured by making physical measurements on the body surface according to the manufacturer's recommendations.

[4] = LCZ696 regimen vs olmesartan regimen, 12 weeks, P < 0.001
[5] = LCZ696 regimen vs olmesartan regimen, 52 weeks
[6] = LCZ696 regimen vs olmesartan regimen, 12 weeks
[7] = Week 52 endpoint (LOCF), FAS, add-on amlodipine/HCTZ allowed

## CCCCC(=O)N(Cc1ccc(-c2ccccc2-c2nn[n-]n2)cc1)C(C(=O)[O-])C(C)C.CCCCC(=O)N(Cc1ccc(-c2ccccc2-c2nn[n-]n2)cc1)C(C(=O)[O-])C(C)C.CCOC(=O)C(C)CC(Cc1ccc(-c2ccccc2)cc1)NC(=O)CCC(=O)[O-].CCOC(=O)C(C)CC(Cc1ccc(-c2ccccc2)cc1)NC(=O)CCC(=O)[O-].O.O.O.O.O.[Na+].[Na+].[Na+].[Na+].[Na+].[Na+] [LCZ696, trisodium [3-((1S,3R)-1-biphenyl-4-ylmethyl-3-ethoxycarbonyl-1-butylcarbamoyl) propionate-(S)-3′-methyl-2′-(pentanoyl{2″-(tetrazol-5-ylate)biphenyl-4′-ylmethyl}amino)butyrate]hemipentahydrate]
[1]; [4]
  Between-treatment difference, maDBP, 12 weeks: −2.0 (0.51)* mmHg
  Between-treatment difference, maPP, 12 weeks: −2.1 (0.49)* mmHg
  Between-treatment difference, maSBP, 12 weeks: −4.1 (0.87)* mmHg
  Between-treatment difference, macSBP, 12 weeks: −3.4 (0.84)* mmHg
[1]; [5]
  Between-treatment difference, maDBP, 52 weeks: −0.4 (0.48) mmHg
  Between-treatment difference, maPP, 52 weeks: 0.6 (0.50) mmHg
  Between-treatment difference, maSBP, 52 weeks: 0.2 (0.82) mmHg
  Between-treatment difference, macSBP, 52 weeks: 0.6 (0.79) mmHg
[1]; after 12-week monotherapy
  24-hour ambulatory SBP compared to olmesartan: lowered 24-hour ambulatory SBP compared to olmesartan
[1]; mean ambulatory central diastolic BP, 12 weeks, mean
  Change from baseline to 12 weeks, macDBP: −7.5 mmHg
[1]; mean ambulatory central diastolic BP, 52 weeks, mean
  Change from baseline to 52 weeks, macDBP: −9.0 mmHg
[1]; mean ambulatory central mean arterial pressure, 12 weeks, mean
  Change from baseline to 12 weeks, macMAP: −9.0 mmHg
[1]; mean ambulatory central mean arterial pressure, 52 weeks, mean
  Change from baseline to 52 weeks, macMAP: −10.33 mmHg
[1]; mean ambulatory central pulse pressure, 12 weeks, mean
  Change from baseline to 12 weeks, macPP: −4.4 mmHg
[1]; mean ambulatory central pulse pressure, 52 weeks, mean
  Change from baseline to 52 weeks, macPP: −4.1 mmHg
[1]; mean ambulatory central systolic BP, 12 weeks
  Change from baseline to 12 weeks, macSBP: −12.1 mmHg
[1]; mean ambulatory central systolic BP, 52 weeks
  Change from baseline to 52 weeks, macSBP: −13.0 mmHg
[1]; mean ambulatory diastolic BP, 12 weeks
  Change from baseline to 12 weeks, maDBP: −7.4 mmHg
[1]; mean ambulatory diastolic BP, 52 weeks
  Change from baseline to 52 weeks, maDBP: −8.8 mmHg
[1]; mean ambulatory mean arterial pressure, 12 weeks, mean
  Change from baseline to 12 weeks, maMAP: −10.0 mmHg
[1]; mean ambulatory mean arterial pressure, 52 weeks, mean
  Change from baseline to 52 weeks, maMAP: −11.2 mmHg
[1]; mean ambulatory pulse pressure, 12 weeks
  Change from baseline to 12 weeks, maPP: −5.8 mmHg
[1]; mean ambulatory pulse pressure, 52 weeks
  Change from baseline to 52 weeks, maPP: −5.3 mmHg
[1]; mean ambulatory systolic BP, 12 weeks
  Change from baseline to 12 weeks, maSBP: −13.2 mmHg
[1]; mean ambulatory systolic BP, 52 weeks
  Change from baseline to 52 weeks, maSBP: −14.1 mmHg
[2]; LCZ696 400 mg/day, after 12 weeks of monotherapy
  lowering of CASP and CPP vs olmesartan 40 mg/day: to a greater extent than olmesartan
[2]; [6]
  Between-treatment difference, mscDBP, 12 weeks: −1.1 (0.90) mmHg
[2]; [5]
  Between-treatment difference, mscDBP, 52 weeks: −0.7 (0.86) mmHg
[2]; Week 12 endpoint, FAS, ANCOVA, p=0.012
  LSM difference in change from baseline (SE), mean CPP, LCZ696 vs Olmesartan: −2.45 mmHg and −2.45 (0.96) mmHg
[2]; Week 12 endpoint, FAS, monotherapy
  LSM change from baseline (SE) in mean CPP at Week 12 endpoint: −6.41 mmHg and −6.41 (0.69) mmHg
[2]; Week 12 endpoint, FAS, monotherapy, LCZ696 400 mg/day, olmesartan 40 mg/day
  LSM change from baseline (SE) in mean CASP at Week 12 endpoint: −12.57 mmHg and −12.57 (1.01) mmHg
[2]; [7]
  LSM change from baseline (SE) in mean CASP at Week 52 endpoint: −16.18 mmHg and −16.18 (0.96) mmHg
  LSM change from baseline (SE) in mean CPP at Week 52 endpoint: −7.16 mmHg and −7.16 (0.69) mmHg
[2]; Week 52 endpoint (LOCF), FAS, p=0.271
  LSM difference in change from baseline (SE), mean CASP, LCZ696 vs Olmesartan: −1.49 (1.35) mmHg
[2]; Week 52 endpoint (LOCF), FAS, p=0.598
  LSM difference in change from baseline (SE), mean CPP, LCZ696 vs Olmesartan: −0.51 (0.97) mmHg
[2]; mean sitting central diastolic BP, 12 weeks
  Change from baseline to 12 weeks, mscDBP: −6.1 mmHg
[2]; mean sitting central diastolic BP, 52 weeks
  Change from baseline to 52 weeks, mscDBP: −8.8 mmHg
[2]; mean sitting central mean arterial pressure, 12 weeks, mean
  Change from baseline to 12 weeks, mscMAP: −8.0 mmHg
[2]; mean sitting central mean arterial pressure, 52 weeks, mean
  Change from baseline to 52 weeks, mscMAP: −9.6 mmHg
[3]; [6]
  Between-treatment difference, PWV, 12 weeks: −0.1 (0.17)*
[3]; [5]
  Between-treatment difference, PWV, 52 weeks: −0.1 (0.18)
[3]; ad-hoc analysis, vs olmesartan regimen, both Week 12 and 52
  reduction of PWV in subgroup of patients with high baseline PWV: tended to reduce PWV to a greater extent than olmesartan regimen
[3]; both Week 12 and 52, LCZ696 vs olmesartan regimen
  difference in carotid-femoral PWV between the two regimens: no significant difference
[3]; pulse wave velocity, Week 12 endpoint, n = 192 LCZ696, n = 196 olmesartan
  Change from baseline to 12 weeks, PWV: −0.7
[3]; pulse wave velocity, week 52 endpoint, n = 199 both treatments
  Change from baseline to 52 weeks, PWV: −0.8
